How the values were obtained:
Ku70/80 = Ku70/80 (Homo sapiens, UniProt P12956+P13010); assay: Ku–DNA binding EMSA; conditions: for IC50: Ku70/80 (IC50), purified Ku70/80, direct DNA binding activity by EMSA
DNA-PK = DNA-PK (Homo sapiens, UniProt P12956+P13010); assay: DNA-PK phosphoryl-transferase catalytic; type: biochemical
[1] = CF3 in place of CH3 on pyrazolone ring

DNA-PK, sequence (P12956 whole entry): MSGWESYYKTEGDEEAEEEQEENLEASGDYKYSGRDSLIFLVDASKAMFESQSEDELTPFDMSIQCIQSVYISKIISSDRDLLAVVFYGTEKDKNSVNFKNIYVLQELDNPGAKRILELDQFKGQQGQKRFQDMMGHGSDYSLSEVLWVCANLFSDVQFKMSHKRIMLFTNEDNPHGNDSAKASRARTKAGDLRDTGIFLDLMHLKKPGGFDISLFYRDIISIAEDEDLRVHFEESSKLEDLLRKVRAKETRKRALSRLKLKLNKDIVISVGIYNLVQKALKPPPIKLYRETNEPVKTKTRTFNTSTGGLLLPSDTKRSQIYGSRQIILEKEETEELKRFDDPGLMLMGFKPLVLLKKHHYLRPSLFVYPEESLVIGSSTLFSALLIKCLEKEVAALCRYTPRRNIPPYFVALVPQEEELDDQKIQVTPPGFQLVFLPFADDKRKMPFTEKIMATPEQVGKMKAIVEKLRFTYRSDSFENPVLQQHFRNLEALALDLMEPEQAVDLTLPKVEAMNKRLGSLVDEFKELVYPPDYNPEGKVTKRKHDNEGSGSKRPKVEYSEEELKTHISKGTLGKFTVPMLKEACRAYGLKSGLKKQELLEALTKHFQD
DNA-PK, sequence (P13010 whole entry): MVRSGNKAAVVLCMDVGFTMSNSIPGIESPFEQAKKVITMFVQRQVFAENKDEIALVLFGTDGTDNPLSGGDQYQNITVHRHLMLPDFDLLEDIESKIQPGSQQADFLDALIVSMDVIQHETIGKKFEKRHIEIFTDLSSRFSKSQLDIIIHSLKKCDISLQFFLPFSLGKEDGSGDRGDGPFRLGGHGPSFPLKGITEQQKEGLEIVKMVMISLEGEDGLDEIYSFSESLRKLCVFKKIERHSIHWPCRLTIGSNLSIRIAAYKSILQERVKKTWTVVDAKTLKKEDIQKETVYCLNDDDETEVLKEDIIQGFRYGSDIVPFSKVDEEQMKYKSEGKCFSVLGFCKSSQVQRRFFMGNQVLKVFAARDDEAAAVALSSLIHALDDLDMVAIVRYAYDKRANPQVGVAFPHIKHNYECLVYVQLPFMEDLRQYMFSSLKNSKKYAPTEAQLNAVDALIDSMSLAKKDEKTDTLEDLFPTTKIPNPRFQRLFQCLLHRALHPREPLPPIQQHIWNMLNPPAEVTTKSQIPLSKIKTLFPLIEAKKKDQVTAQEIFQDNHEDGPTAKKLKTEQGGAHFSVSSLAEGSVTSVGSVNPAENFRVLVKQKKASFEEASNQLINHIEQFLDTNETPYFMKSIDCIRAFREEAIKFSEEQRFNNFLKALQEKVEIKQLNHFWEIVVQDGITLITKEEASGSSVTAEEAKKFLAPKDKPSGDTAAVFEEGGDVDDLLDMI
Ku70/80, sequence (P12956 whole entry): as the sequence (P12956 whole entry) above
Ku70/80, sequence (P13010 whole entry): as the sequence (P13010 whole entry) above

SMILES | IC50 (Ku70/80) | IC50 (DNA-PK) | increase in DNA-PK inhibitory activity (DNA-PK; [1]) | increase in Ku inhibitory activity (Ku70/80; [1]) | Ku inhibitory activity (qualitative) (Ku70/80; carboxylic acid replaced by nitrile)
O=C(O)c1cccc(N2N=C(C(F)(F)F)/C(=C/c3ccc(-c4ccc(Cl)c(C(=O)O)c4)o3)C2=O)c1 [Compound 16, (Z)-5-(5-((1-(3-carboxyphenyl)-5-oxo-3-(trifluoromethyl)-1,5-dihydro-4H-pyrazol-4-ylidene)methyl)furan-2-yl)-2-chlorobenzoic acid] | 16.4 ± 3.94 µM |  |  |  | 
CC1=NN(c2cccc(C(=O)O)c2)C(=O)/C1=C\c1ccc(-c2ccc(Cl)c(C(=O)NCc3ccccc3)c2)o1 [Compound 37, (Z)-3-(4-((5-(3-(Benzylcarbamoyl)-4-chlorophenyl)furan-2-yl)methylene)-3-methyl-5-oxo-4,5-dihydro-1H-pyrazol-1-yl)benzoic acid] | 8.22 ± 0.45 µM | 0.83 ± 0.09 µM |  |  | 
CC1=NN(c2cccc(C(=O)O)c2)C(=O)/C1=C\c1ccc(-c2ccc(Cl)c(C(=O)NCc3ccccc3Cl)c2)o1 [Compound 38, (Z)-3-(4-((5-(4-Chloro-3-((2-chlorobenzyl)carbamoyl)phenyl)furan-2-yl)methylene)-3-methyl-5-oxo-4,5-dihydro-1H-pyrazol-1-yl)benzoic acid] | 3.55 ± 0.4 µM | 1.74 ± 0.61 µM |  |  | 
CC1=NN(c2cccc(C(=O)O)c2)C(=O)/C1=C\c1ccc(-c2ccc(Cl)c(C(=O)NCC3CCCCC3)c2)o1 [Compound 39, (Z)-3-(4-((5-(4-Chloro-3-((cyclohexylmethyl)carbamoyl)phenyl)furan-2-yl)methylene)-3-methyl-5-oxo-4,5-dihydro-1H-pyrazol-1-yl)benzoic acid] | 22.6 ± 4.4 µM |  |  |  | 
COc1cccc(NC(=O)c2cc(-c3ccc(/C=C4\C(=O)N(c5cccc(C(=O)O)c5)N=C4C)s3)ccc2Cl)c1 [Compound 40, (Z)-3-(4-((5-(4-Chloro-3-((3-methoxyphenyl)carbamoyl)phenyl)thiophen-2-yl)methylene)-3-methyl-5-oxo-4,5-dihydro-1H-pyrazol-1-yl)benzoic acid] | 7.18 ± 2.24 µM | 1.72 ± 0.18 µM |  |  | 
COc1cccc(NC(=O)c2cc(-c3ccc(/C=C4\C(=O)N(c5ccc(C(=O)O)cc5)N=C4C)s3)ccc2Cl)c1 [Compound 41, (Z)-4-(4-((5-(4-Chloro-3-((3-methoxyphenyl)carbamoyl)phenyl)thiophen-2-yl)methylene)-3-methyl-5-oxo-4,5-dihydro-1H-pyrazol-1-yl)benzoic acid] | 9.04 ± 0.36 µM | 0.53 ± 0.07 µM |  |  | 
CC1=NN(c2cccc(C(=O)O)c2)C(=O)/C1=C\c1ccc(-c2ccc(Cl)c(C(=O)NCC3CC3)c2)s1 [Compound 42, (Z)-3-(4-((5-(4-Chloro-3-((cyclopropylmethyl)carbamoyl)phenyl)thiophen-2-yl)methylene)-3-methyl-5-oxo-4,5-dihydro-1H-pyrazol-1-yl)benzoic acid] | 11.1 ± 0.76 µM | 3.04 ± 0.7 µM |  |  | 
CC1=NN(c2cccc(C(=O)O)c2)C(=O)/C1=C\c1ccc(-c2ccc(Cl)c(C(=O)NCc3ccc(F)cc3)c2)s1 [Compound 43, (Z)-3-(4-((5-(4-Chloro-3-((4-fluorobenzyl)carbamoyl)phenyl)thiophen-2-yl)methylene)-3-methyl-5-oxo-4,5-dihydro-1H-pyrazol-1-yl)benzoic acid] | 10.1 ± 1.4 µM | 3.24 µM |  |  | 
COc1cccc(NC(=O)c2cc(-c3ccc(/C=C4\C(=O)N(c5cccc(C(=O)O)c5)N=C4C)[nH]3)ccc2Cl)c1 [Compound 44, (Z)-3-(4-((5-(4-Chloro-3-((3-methoxyphenyl)carbamoyl)phenyl)-1H-pyrrol-2-yl)methylene)-3-methyl-5-oxo-4,5-dihydro-1H-pyrazol-1-yl)benzoic acid] | 9.77 ± 4.16 µM | 1.57 ± 0.73 µM |  |  | 
CC1=NN(c2cccc(C(=O)O)c2)C(=O)/C1=C\c1ccc(-c2ccc(Cl)c(C(=O)Nc3cccc(OC(F)(F)F)c3)c2)[nH]1 [Compound 45, (Z)-3-(4-((5-(4-Chloro-3-((3-(trifluoromethoxy)phenyl)carbamoyl)phenyl)-1H-pyrrol-2-yl)methylene)-3-methyl-5-oxo-4,5-dihydro-1H-pyrazol-1-yl)benzoic acid] | 6.9 ± 1 µM | 0.53 ± 0.18 µM |  |  | 

Further lines, with some results ahead:

IC50 (Ku70/80) | IC50 (DNA-PK) | increase in DNA-PK inhibitory activity (DNA-PK; [1]) | increase in Ku inhibitory activity (Ku70/80; [1]) | SMILES | Ku inhibitory activity (qualitative) (Ku70/80; carboxylic acid replaced by nitrile)
> 25 µM | 0.48 ± 0.048 µM |  |  | COc1cccc(CNC(=O)c2cc(-c3ccc(/C=C4\C(=O)N(c5ccc(C(=O)O)cc5)N=C4C)o3)ccc2Cl)c1 [Compound 47, (Z)-4-(4-((5-(4-Chloro-3-((3-methoxybenzyl)carbamoyl)phenyl)furan-2-yl)methylene)-3-methyl-5-oxo-4,5-dihydro-1H-pyrazol-1-yl)benzoic acid] | 
22.4 ± 4.19 µM | 0.48 ± 0.016 µM |  |  | CC1=NN(c2ccc(C(=O)O)cc2)C(=O)/C1=C\c1ccc(-c2ccc(Cl)c(C(=O)NCc3ccccc3)c2)o1 [Compound 48, (Z)-4-(4-((5-(3-(Benzylcarbamoyl)-4-chlorophenyl)furan-2-yl)methylene)-3-methyl-5-oxo-4,5-dihydro-1H-pyrazol-1-yl)benzoic acid] | 
> 25 µM | 2.5 µM |  |  | CC1=NN(c2ccc(C(=O)O)cc2)C(=O)/C1=C\c1ccc(-c2ccc(Cl)c(C(=O)NCc3cccnc3)c2)o1 [Compound 49, (Z)-4-(4-((5-(4-Chloro-3-((pyridin-3-ylmethyl)carbamoyl)phenyl)furan-2-yl)methylene)-3-methyl-5-oxo-4,5-dihydro-1H-pyrazol-1-yl)benzoic acid] | 
3.36 ± 0.52 µM |  | ~20 fold | 2 fold | COc1cccc(NC(=O)c2cc(-c3ccc(/C=C4\C(=O)N(c5cccc(C(=O)O)c5)N=C4C(F)(F)F)o3)ccc2Cl)c1 [Compound 50, (Z)-3-(4-((5-(4-Chloro-3-((3-methoxyphenyl)carbamoyl)phenyl)furan-2-yl)methylene)-5-oxo-3-(trifluoromethyl)-4,5-dihydro-1H-pyrazol-1-yl)benzoic acid] | 
11.4 ± 8.26 µM | 0.35 µM |  |  | O=C(O)c1cccc(N2N=C(C(F)(F)F)/C(=C/c3ccc(-c4ccc(Cl)c(C(=O)NCC5CC5)c4)o3)C2=O)c1 [Compound 51, (Z)-3-(4-((5-(4-Chloro-3-((cyclopropylmethyl)carbamoyl)phenyl)furan-2-yl)methylene)-5-oxo-3-(trifluoromethyl)-4,5-dihydro-1H-pyrazol-1-yl)benzoic acid] | 
14.2 ± 0.21 µM |  |  |  | O=C(O)c1cccc(N2N=C(C(F)(F)F)C(Cc3ccc(-c4ccc(Cl)c(C(=O)NCC5CC5)c4)o3)C2=O)c1 (stereo not drawn) [Compound 62, 3-(4-((5-(4-Chloro-3-((cyclopropylmethyl)carbamoyl)phenyl)furan-2-yl)methyl)-5-oxo-3-(trifluoromethyl)-4,5-dihydro-1H-pyrazol-1-yl)benzoic acid] | 
> 25 µM |  |  |  | CC1=NN(c2ccc(S(N)(=O)=O)cc2)C(=O)/C1=C\c1ccc(-c2ccc(Cl)c(C(=O)NCC3CC3)c2)o1 [Compound 68, (Z)-2-Chloro-N-(cyclopropylmethyl)-5-(5-((3-methyl-5-oxo-1-(4-sulfamoylphenyl)-1,5-dihydro-4H-pyrazol-4-ylidene)methyl)furan-2-yl)benzamide] | 
> 25 µM |  |  |  | COc1cccc(NC(=O)c2cc(-c3ccc(/C=C4\C(=O)N(c5cccc(C#N)c5)N=C4C)o3)ccc2Cl)c1 [Compound 74, (Z)-2-chloro-5-(5-((1-(3-cyanophenyl)-3-methyl-5-oxo-1,5-dihydro-4H-pyrazol-4-ylidene)methyl)furan-2-yl)-N-(3-methoxyphenyl)benzamide] | complete abolition of Ku inhibitory activity

Source: paper PMC12452633 (RSC Medicinal Chemistry, 2025)
